# Source: patent US20090312373A1, “METHODS FOR THE TREATMENT OF CANCER USING PIPERLONGUMINE AND PIPERLONGUMINE ANALOGS” (The General Hospital Corporation, priority 2008, published 2009)
# Legend:
# [1] = tested on: p53; assay: p53 acetylation Western blot in U2OS cells; format: cell-based, human; conditions: 6 hours, TSA 10 mM
# Procedure: U2OS cells were treated with piperlongumine (SP), the HDAC inhibitor TSA (trichostatin A ([…])) or the control DMSO for 6 hours. Cell extracts were fractionated in SDS-PAGE gel and analyzed by western blot.
# [2] = tested on: MMTV-PyVT mammary tumor; assay: MMTV-PyVT spontaneous mammary tumor mouse model; format: in vivo
# Text: MMTV-PvVT (FVB/N-Tg) transgenic mice develop multifocal mammary tumor (from hyperplasia to metastatic) with a high incidence of metastasis (Mice were obtained from the NCI repository). This mouse model has been widely used for the correlation studies of human cancer (Guy et al., Moll. Cell. Biol. 12: 954-961, 1992). In addition, this onco-mouse model has been used to evaluate the effectiveness of potential drug therapies. Generally, due to aggressiveness of tumor growth and spread in this mouse-model, only a combination of chemo-drugs is effective in tumor growth inhibition. MMTV-PyVT mice were maintained until mammary tumor size reached to 6 mm, and then piperlongumine (2.4 mg/kg) or vehicle (DMSO) was given daily by i.p. for 13 days. Tumor size was measured every 4 days (See FIGS. 31 and 32).
# We compared the anti-tumor activity of piperlongumine (SP2007) with taxol, a well known chemo drug, in the MMTV-PyVT tumor mouse model as described above (8 mice per group). When tumor sizes grew to ˜5-6 mm in diameter, SP2007 (2.4 mg/kg/day) or Taxol (Paclitaxel, 10 mg/kg/day) was administered intraperitoneally (I.P.) daily for two weeks. After two weeks treatment, mice were sacrificed, and mammary tumors excised and the tumor sizes measured. […] The size of the grossly dissected tumors was measured using the formula: mean diameter=(A+B)/2.
# [3] = tested on: EJ bladder carcinoma cells; assay: Persistent effects after removal of the compound in EJ cells; format: cell-based, human; conditions: 3 hrs treatment, washed, another 6 hrs in medium without compound
# Procedure: EJ bladder carcinoma cells were treated with SP2007 (P10: 10 μM and P20: 20 μM), taxol (T10: 10 nM and T20: 20 nM) or DMSO vehicle control for either 20 hrs or 3 hrs. For the 20 hrs experiment, the percentages of remaining living cells ware measured on the end of the 20 hrs treatment time point. […] For the 3 hrs experiment, cells were washed 3 times with PBS after treatment with the and incubated for another 6 hrs in growing medium without SP2007, taxol or DMSO.
# [4] = tested on: immortalized human breast epithelial cells; assay: DNA damage markers in immortalized human breast epithelial cells; format: cell-based; conditions: taxol 10 nM
# Text: (§1) The conditions and time of exposure are indicated in the legend of the figure.
# [5] = tested on: EJ bladder carcinoma and U2OS osteosarcoma cell lines; assay: DNA damage in EJ bladder carcinoma and U2OS osteosarcoma cell lines; format: cell-based, human
# Text: as §1
compound,measurement,setting,value
"CC(/C=C/C(=O)NO)=C\[C@@H](C)C(=O)c1ccc(N(C)C)cc1 [TSA, reference compound]",total amount of p53,[1],did not increase
"CC(=O)O[C@H]1C(=O)[C@@]2(C)[C@H]([C@H](OC(=O)c3ccccc3)[C@]3(O)C[C@H](OC(=O)[C@H](O)[C@@H](NC(=O)c4ccccc4)c4ccccc4)C(C)=C1C3(C)C)[C@]1(OC(C)=O)CO[C@@H]1C[C@@H]2O [Taxol, reference compound]",secondary tumors,[2]; SP2007 2.4 mg/kg/day or Taxol 10 mg/kg/day i.p. for two weeks,moderate and secondary tumors appeared
same,deaths during treatment,[2]; Taxol 10 mg/kg/day i.p. daily for two weeks,two of the Taxol-treated mice died at day 10
same,killing of cancer cells after removal of the compound,[3],significantly weakened
same,phosphorylated gamma-H2AX and p53,[4],results in the induction
"COc1cccc2c1C(=O)c1c(O)c3c(c(O)c1C2=O)C[C@@](O)(C(=O)CO)C[C@@H]3O[C@H]1C[C@H](N)[C@H](O)[C@H](C)O1 [adrimycin, reference compound]",DNA damage (phosphorylated gamma-H2AX levels),[5],results in the induction of DNA damage
